US9388142B2, “Quinazolinone derivatives as PARP inhibitors” (MERCK PATENT GMBH, priority 2012, dated 2016)
Where a name gives a salt, the structure may show the parent alone. Read-outs that look alike come from different tables or passages of the source.

Key:
[1] = at 30 μM; cited from earlier work
[2] = molecular target: GST-tagged Tankyrase-2 (873-1166 aa) (Homo sapiens, UniProt Q9H2K2); experiment: biochemical
Description: (§1) aq (aqueous), h (hour), g (gram), L (liter), mg (milligram), MHz (Megahertz), min. (minute), mm (millimeter), mmol (millimole), mM (millimolar), m.p. (melting point), eq (equivalent), mL (milliliter), L (microliter), ACN (acetonitrile), AcOH (acetic acid), CDCl3 (deuterated chloroform), CD3OD (deuterated methanol), CH3CN (acetonitrile), c-hex (cyclohexane), DCC (dicyclohexyl carbodiimide), DCM (dichloromethane), DIC (diisopropyl carbodiimide), DIEA (diisopropylethyl-amine), DMF (dimethylformamide), DMSO (dimethylsulfoxide), DMSO-d6 (deuterated dimethylsulfoxide), EDC (1-(3-dimethyl-amino-propyl)-3-ethylcarbodiimide), ESI (Electro-spray ionization), EtOAc (ethyl acetate), Et2O (diethyl ether), EtOH (ethanol), HATU (dimethylamino-([1,2,3]triazolo[4,5-b]pyridin-3-yloxy)-methylene]-dimethylammonium hexafluorophosphate), HPLC (High Performance Liquid Chromatography), i-PrOH (2-propanol), K2CO3 (potassium carbonate), LC (Liquid Chromatography), MeOH (methanol), MgSO4 (magnesium sulfate), MS (mass spectrometry), MTBE (Methyl tert-butyl ether), NaHCO3 (sodium bicarbonate), NaBH4 (sodium borohydride), NMM (N-methyl morpholine), NMR (Nuclear Magnetic Resonance), PyBOP (benzotriazole-1-yl-oxy-trispyrrolidino-phosphonium hexafluorophosphate), RT (room temperature), Rt (retention time), SPE (solid phase extraction), TBTU (2-(1-H-benzotriazole-1-yl)-1,1,3,3-tetramethyluromium tetrafluoro borate), TEA (triethylamine), TFA (trifluoroacetic acid), THF (tetrahydrofuran), TLC (Thin Layer Chromatography), UV (Ultraviolet). Description of the In Vitro Assays Abbreviations: GST=Glutathione-S-transferase FRET=Fluorescence resonance energy transfer HTRF®=(homogenous time resolved fluorescence) HEPES=4-(2-hydroxyethyl)-1-piperazine ethanesulfonic acid buffer DTT=Dithiothreitol BSA=bovine serum albumin CHAPS=detergent; CHAPS=3[(3-cholamidopropyl)dimethylammonio]-1-propanesulfonate Streptavidin-XLent® is a high grade streptavidin-XL665 conjugate for which the coupling conditions have been optimized to yield a conjugate with enhanced performances for some assays, particularly those requiring high sensitivity.
(§2) The autoparsylation assay is run in two steps: the enzymatic reaction in which GST-tagged Tankyrase-1, resp Tankyrase-2 transferred biotinylated ADP-ribose to itself from biotinylated NAD as co-substrate and the detection reaction where a time resolved FRET between cryptate labelled anti-GST bound to the GST tag of the enzyme and Xlent® labelled-streptavidin bound the biotin-parsylation residue is analysed. The autoparsylation activity was detectable directly via the increase in HTRF signal.
(§3) The autoparsylation assay is performed as 384-well HTRF® (Cisbio, Codolet, France) assay format in Greiner low volume nb 384-well microtiter plates and is used for high throughput screen. […] The reaction is stopped by the addition of 1 μl 50 mM EDTA solution. […] The ratio of the emission signals is determined. The full value used is the inhibitor-free reaction. […] The inhibitory values (IC50) are determined using either the program Symyx Assay Explorer® or Condosseo® from GeneData.

[3] = molecular target: T1, GST-tagged Tankyrase-1 (1023-1327 aa) (Homo sapiens, UniProt O95271); experiment: biochemical; details: read-out: IC50 tankyrase 1 (enzyme assay)
T1 construct: GST-tagged Tankyrase-1 (1023-1327 aa)
T1 sequence (O95271 1023-1327): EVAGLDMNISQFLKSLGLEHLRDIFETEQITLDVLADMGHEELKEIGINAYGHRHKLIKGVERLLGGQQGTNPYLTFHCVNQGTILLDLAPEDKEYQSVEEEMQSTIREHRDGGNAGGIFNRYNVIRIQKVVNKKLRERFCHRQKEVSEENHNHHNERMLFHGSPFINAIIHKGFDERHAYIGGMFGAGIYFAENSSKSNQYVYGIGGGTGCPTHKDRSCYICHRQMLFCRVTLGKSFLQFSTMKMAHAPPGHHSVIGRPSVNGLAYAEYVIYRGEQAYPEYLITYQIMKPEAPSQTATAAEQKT
Description: as §1, §2, §3

[4] = molecular target: T2, GST-tagged Tnks-1 (1023-1327 aa) (Homo sapiens, UniProt O95271); experiment: TNKS1 activity ELISA (autoparsylation assay); type: biochemical
T2 construct: GST-tagged Tnks-1 (1023-1327 aa, prepared in-house); made in house
T2 sequence (O95271 1023-1327): as above
Description: (§4) Description of the TNKS1 and TNKS2 ELISA Assay
(§5) Then the activity assay with biotinylated NAD is performed in the absence/presence of the compounds. During the enzymatic reaction GST tagged TNKS transfers biotinylated ADP-ribose to itself from biotinylated NAD as co-substrate. For the detection streptavidin-HRP conjugate is added that binds to the biotinylated TNKS and is thereby captured to the plates. The amount of biotinylated resp. autoparsylated TNKS is detected with a luminescence substrate for HRP. The level of the luminescence signal correlates directly with the amount of autoparsylated TNKS and therefore with activity of TNKS.
(§6) The activity ELISA is performed in 384 well Glutathione coated microtiter plates (Express capture Glutathione coated plate, Biocat, Heidelberg, Germany). The plates are pre-equilibrated with PBS. […] The plates are washed 3 times with PBS-Tween-20. The wells are blocked by incubation at room temperature for 20 minutes with 50 μl blocking buffer (PBS, 0.05% Tween-20, 0.5% BSA). Afterwards the plates are washed 3 times with PBS-Tween-20. […] The reaction is stopped by 3 times washing with PBS-Tween-20. For the detection 50 μl of 20 ng/μl Streptavidin, HRP conjugate (MoBiTec, Gottingen, Germany) in PBS/0.05% Tween-20/0.01% BSA are added and the plates are incubated for 30 minutes at room temperature. After three times washing with PBS-Tween-20 50 μl of SuperSignal ELISA Femto Maximum sensitivity substrate solution (ThermoFisherScientific (Pierce), Bonn, Germany) are added. Following a 1 minute incubation at room temperature luminescence signals are measured with an Envision multimode reader (Perkin Elmer LAS Germany GmbH) at 700 nm. The full value used is the inhibitor-free reaction. […] The inhibitory values (IC50) are determined using either the program Symyx Assay Explorer® or Condosseo® from GeneData.

[5] = molecular target: T3, His-tagged Parp-1 (Homo sapiens, UniProt P09874); experiment: PARP-1 autoparsylation assay (HTRF); type: biochemical
T3 construct: purchased Enzo Life Sciences GmbH, Lörrach, Germany
T3 sequence (P09874 whole entry): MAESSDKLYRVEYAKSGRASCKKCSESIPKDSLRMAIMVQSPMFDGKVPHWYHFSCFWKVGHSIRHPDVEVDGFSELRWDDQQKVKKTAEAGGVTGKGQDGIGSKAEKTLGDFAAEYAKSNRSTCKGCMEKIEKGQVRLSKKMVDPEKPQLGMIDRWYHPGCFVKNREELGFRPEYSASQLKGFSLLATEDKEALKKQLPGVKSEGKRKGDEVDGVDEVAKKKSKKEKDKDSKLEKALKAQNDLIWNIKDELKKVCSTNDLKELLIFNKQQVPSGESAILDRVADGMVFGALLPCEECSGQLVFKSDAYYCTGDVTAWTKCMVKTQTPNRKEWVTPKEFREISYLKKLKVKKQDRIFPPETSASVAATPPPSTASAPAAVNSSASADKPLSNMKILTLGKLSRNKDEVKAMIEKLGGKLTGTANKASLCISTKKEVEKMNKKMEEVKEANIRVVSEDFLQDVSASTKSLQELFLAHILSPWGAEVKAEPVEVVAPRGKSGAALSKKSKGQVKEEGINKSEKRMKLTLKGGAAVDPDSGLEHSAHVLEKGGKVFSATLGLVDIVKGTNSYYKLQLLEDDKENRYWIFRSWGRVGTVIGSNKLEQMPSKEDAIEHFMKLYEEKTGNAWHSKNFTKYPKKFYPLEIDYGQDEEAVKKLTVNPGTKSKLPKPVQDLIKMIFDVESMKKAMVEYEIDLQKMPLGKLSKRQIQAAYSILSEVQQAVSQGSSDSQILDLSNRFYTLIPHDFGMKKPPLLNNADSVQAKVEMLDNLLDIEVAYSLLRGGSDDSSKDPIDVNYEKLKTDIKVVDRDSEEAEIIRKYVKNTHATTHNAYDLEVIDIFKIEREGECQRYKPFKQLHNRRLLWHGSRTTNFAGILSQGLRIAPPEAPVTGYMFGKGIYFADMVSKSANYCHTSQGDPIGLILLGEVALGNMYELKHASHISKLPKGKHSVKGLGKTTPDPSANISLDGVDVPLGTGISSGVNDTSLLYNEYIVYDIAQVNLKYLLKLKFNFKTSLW
Description: Description of the PARP1 Assay
Biochemical Activity Testing of PARP-1: Autoparsylation Assay
as §2, with “His-tagged Parp-1 transfers” for “GST-tagged Tankyrase-1, resp Tankyrase-2 transferred”, “ADP-ribose/ADP-ribose” for “ADP-ribose”, “NAD/NAD” for “NAD”, “anti-His antibody” for “anti-GST”, “His” for “GST”, “is” for “was”
The autoparsylation assay is performed as 384-well HTRF® (Cisbio, Codolet, France) assay format in Greiner low volume nb 384-well microtiter plates. 35 nM His-tagged Parp-1 (human, recombinant, Enzo Life Sciences GmbH, Lörrach, Germany) and a mixture of 125 nM bio-NAD (Biolog, Life science Inst., Bremen, Germany) and 800 nM NAD as co-substrate are incubated in a total volume of 6 μl (100 mM Tris/HCl, 4 mM Mg-chloride, 0.01% IGEPAL® CA630, 1 mM DTT, 0.5% DMSO, pH 8, 13 ng/μl activated DNA (BPS Bioscience, San Diego, US)) in the absence or presence of the test compound (10 dilution concentrations) for 150 min at 23° C. The reaction is stopped by the addition of 4 μl of the Stop/detection solution (70 nM SA-Xlent® (Cisbio, Codolet, France), 2.5 nM Anti-His-K® (Eu-labelled anti-His, Cisbio, Codolet, France) in 50 mM HEPES, 400 mM KF, 0.1% BSA, 20 mM EDTA, pH 7.0). After 1 h incubation at room temperature the HTRF iss measured with an Envision multimode reader (Perkin Elmer LAS Germany GmbH) at excitation wavelength 340 nm (laser mode) and emission wavelengths 615 nm and 665 nm. The ratio of the emission signals is determined. The full value used is the inhibitor-free reaction. The pharmacological zero value used is Olaparib (LClabs, Woburn, US) in a final concentration of 1 The inhibitory values (IC50) are determined using either the program Symyx Assay Explorer® or Condosseo® from GeneData.

[6] = test system: tankyrase 1/2; experiment: Cellular inhibition of tankyrase: increase of Axin2 level in DLD1 cells (Luminex); type: cell-based; details: read-out: EC50 tankyrase 1/2 (cell assay), 24 hours
Description: Measurement of Cellular Inhibition of Tankyrase
Cells of the colon carcinoma cell line DLD1 are plated in 96 well plates with 1.5×10^4 cells per well. Next day, cells are treated with a serial dilution of test compound in seven steps as triplicates with a final DMSO concentration of 0.3%. After 24 hours, cells are lysed in lysis buffer (20 mM Tris/HCl pH 8.0, 150 mM NaCl, 1% NP40, 10% Glycerol) and lysates are cleared by centrifugation through a 96 well filter plate (0.65 μm). […] The amount of isolated Axin2 protein is determined in a Luminex^200 machine (Luminex Corporation) according to the manufacturer's instruction by counting 100 events per well. […] For analysis, the obtained data are normalized against the untreated solvent control and fitted for determination of the EC50 values using the Assay Explorer software (Accelrys).

[7] = molecular target: GST-tagged Tnks-2 (873-1166 aa) (Homo sapiens, UniProt Q9H2K2); experiment: biochemical
Chain of GST-tagged Tnks-2 (873-1166 aa) (Q9H2K2 873-1166): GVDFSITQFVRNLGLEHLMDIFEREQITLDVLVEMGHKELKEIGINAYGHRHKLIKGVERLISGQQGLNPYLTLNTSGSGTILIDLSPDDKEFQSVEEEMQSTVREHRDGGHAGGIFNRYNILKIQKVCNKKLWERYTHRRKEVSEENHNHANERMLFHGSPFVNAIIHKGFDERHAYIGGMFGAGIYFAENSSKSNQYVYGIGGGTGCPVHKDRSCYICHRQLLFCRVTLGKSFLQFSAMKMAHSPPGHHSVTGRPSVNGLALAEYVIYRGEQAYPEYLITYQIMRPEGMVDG
Description: as §4, §5, §6

[8] = test system: β-catenin; details: by increasing the levels of the AXIN1 and AXIN2 proteins; cited from earlier work
[9] = test system: DLD-1-cancer cells; details: cited from earlier work

Chain of GST-tagged Tankyrase-2 (873-1166 aa) (Q9H2K2 873-1166): as above

Structure (SMILES)	IC50 [2] [nM]	IC50 [3] [nM]	IC50 [5] [nM]	other results
O=c1[nH]c(-c2ccc3c(c2)OCO3)nc2ccccc12	–	–	–	cellular assay [1]: no effect
CC(C)c1ccc(-c2nc3ccc(F)cc3c(=O)[nH]2)cc1 [Compound A22, 6-fluoro-2-(4-isopropyl-phenyl)-3H-quinazolin-4-one]	300 to 3000	300 to 3000	–	–
Cc1cc(F)cc2c(=O)[nH]c(-c3ccc(N4CCN(C)CC4)cc3)nc12 [Compound A28, 6-fluoro-8-methyl-2-[4-(4-methyl-piperazin-1-yl)-phenyl]-3H-quinazolin-4-one]	–	300 to 3000	< 300	IC50 ([4]; read-out: IC50 TNKS1 ELISA): < 300 nM
Cc1cc(F)cc2c(=O)[nH]c(-c3ccc(N4CCS(=O)(=O)CC4)cc3)nc12 [Compound A30, 2-[4-(1,1-dioxo-1|6-thiomorpholin-4-yl)-phenyl]-6-fluoro-8-methyl-3H-quinazolin-4-one]	300 to 3000	300 to 3000	300 to 3000	EC50 [6]: < 300 nM; IC50 [4]: < 300 nM; IC50 [7]: < 300 nM
Cc1cc(F)cc2c(=O)[nH]c(-c3ccc(N4CCCN(C)CC4)cc3)nc12 [Compound A32, 6-fluoro-8-methyl-2-[4-(4-methyl-[1,4]diazepan-1-yl)-phenyl]-3H-quinazolin-4-one]	300 to 3000	300 to 3000	–	EC50 [6]: 300 to 3000 nM
Cc1cc(F)cc2c(=O)[nH]c(-c3ccc(C4CCNCC4)cc3)nc12 [Compound A33, 6-fluoro-8-methyl-2-(4-piperidin-4-yl-phenyl)-3H-quinazolin-4-one hydrochloride]	–	< 300	300 to 3000	IC50 [4]: < 300 nM
Oc1nc(-c2ccc(C(F)(F)F)cc2)nc2c1CSCC2 [XAV939]	–	–	–	Wnt-stimulated accumulation of β-catenin [8]: blocked; growth of DLD-1-cancer cells [9]: inhibits growth
